Experimental findings from US20100120662A1, “Glucose uptake modulator and method for treating diabetes or diabetic complications” (POSTECH Foundation, priority 2005, published 2010) are described below.

Ends that are not written are not given here.

In one test the test system is GLUT4. Put plainly: GLUT4 translocation to the plasma membrane in 3T3-L1 adipocytes. Format: cell-based. As to conditions: 100 nM insulin, 10 min. As for the experimental part: Membrane fractionation of adipocytes. For obtaining total membranes (TM) from 3T3-L1 adipocytes, cells were collected into 10 ml of ice-cold HES buffer (250 mM sucrose, 1 mM EDTA, 1 mM phenylmethylsulfonyl fluoride [PMSF], 1 μM pepstatin, 1 μM aprotinin, 1 μM leupeptin, and 20 mM HEPES, pH 7.4) and subsequently homogenized with 30 strokes in a glass Dounce homogenizer at 4° C. After centrifugation at 1,000 g for 5 min at 4° C. to remove unbroken cells, the supernatant was then centrifugated at 212,000 g for 90 min at 4° C. to yield a pellet of total cellular membranes. To obtain the plasma membrane (PM) subcellular fraction from 3T3-L1 adipocytes, differential ultracentrifugation was used as described previously (Perrini, S., et al., Diabetes 53, pp. 41-52, 2004).
Immunoblotting. For preparing total cell lysates, 3T3-L1 adipocytes were washed with Ca^2+/Mg^2+-free PBS and then lysed in the lysis buffer (50 mM HEPES, pH 7.2, 150 mM NaCl, 50 mM NaF, 1 mM Na3VO4, 10% glycerol, 1% Triton X-100). The lysates were centrifuged at 15,000 rpm for 15 min at 4° C. […]
FIGS. 3A and 3B show LPC stimulates GLUT4 translocation in 3T3-L1 adipocytes. […] In each experiment, the relative increase or decrease in the integrated density value (IDV) of GLUT4 after stimulation with compounds is calculated. B) Quantitation of relative increases is depicted. […]

The next test relates to IRS1 and AKT. Description: IRS1 and AKT phosphorylation in 3T3-L1 adipocytes (immunoblot). Type of test: cell-based. As to conditions: 10 nM insulin. How it is done:
Immunoblotting. For preparing total cell lysates, 3T3-L1 adipocytes were washed with Ca^2+/Mg^2+-free PBS and then lysed in the lysis buffer (50 mM HEPES, pH 7.2, 150 mM NaCl, 50 mM NaF, 1 mM Na3VO4, 10% glycerol, 1% Triton X-100). The lysates were centrifuged at 15,000 rpm for 15 min at 4° C. The proteins were denatured by boiling in laemmli sample buffer for 5 min at 95° C., separated by SDS-PAGE. SDS-gel was transferred to nitrocellulose membrane using Hoefer wet transfer system. Membranes were blocked in TTBS (20 mM Tris-HCl, pH 7.6, 150 mM NaCl, 0.05% Tween 20) containing 5% skimmed milk powder for 30 min and then incubated with antibodies for 3 hours. After washing membranes several times with TTBS, the blots were incubated with HRP (Horseradish peroxidase)-conjugated goat anti-rabbit for 1 hour. The blots were washed with TTBS and developed by ECL.
On the technique in general: In western blotting, separated proteins are transferred to a membrane and probed.

In another test the test system is ICR mice. Put plainly: Blood glucose in normal ICR mice after intravenous UCN. Format: in vivo, mouse. As to conditions: i.v. As for the experimental part:
(§1) The inserted immunoblot data is about IR phosphorylation by UCN in skeletal muscle. Mice were injected (intravenously) with either vehicle (0.1% BSA in saline) or UCN (0.1-100 μM). Values are the mean±S.D. for four control and four UCN-treated mice. […] The inserted immunoblot data was about IR phosphorylation by treatment of UCN in skeletal muscle of STZ mouse. Mice were injected (intravenously) with vehicle (0.1% BSA in saline), UCN (0.1 μM) and/or insulin (1 nM). And plasma levels of glucose were measured during 45 min. Values are the mean±S.D. for six mice each group. *, P<0.05.
For prepare the normal test animal, male Institute of Cancer Research (ICR) mice weighing 20-25 g, aged 8 weeks, were obtained from the Hyochang Science were housed four to cage in a temperature- and light-controlled room (20-22° C.; 12-hrs light, 12-hrs dark cycle; lights on at 07:00 hr) and were provided with regular diet chow and water ad libitum. The laboratory procedures used conformed to the guidelines of the Korea Government Guide for the Care of Use of Laboratory Animals. In the in vivo study, after fasting overnight, mice were injected to intravenous vein with 0.1% BSA saline or UCN, then plasma glucose was measured on a time by glucose analyzer (model AGM-2100, allmedicus Inc., anyang, Korea)

Test [1] concerns insulin receptor (IR). Description: IR autophosphorylation in hIRcB cells. Format: cell-based, human. How it is done:
FIG. 12A shown a comparison of insulin sensitizing effect among CRF family which was obtained by incubating cells with 1 μM CRF family and/or 2 nM insulin or with medium alone for 1 min. […] FIG. 12B was obtained by incubating cells with 2 nM insulin and variant dose of UCN (from 2 nM to 1 μM) for 1 min. FIG. 12C was obtained by incubating cells 100 nM UCN and variant dose of insulin for 1 min. Phosphorlyation of IR was assessed by western blotting with anti-pTyr antibodies. FIG. 13D was obtained by incubating cells with 100 nM UCN and/or 10 nM insulin for 0, 2, 10, 30, and 60 min, and then assessing the phosphorlyation of IR by western blotting with anti-pIR antibodies. Quantization of IR autophosphorylation was measured with image gauge software (Fuji film). The values are the mean±S.E. for three experiments. *, P<0.05
hIRcB cells were maintained in DMEM, supplemented with 10% (v/v) FBS. The cells were grown at 37° C. in a humidified atmosphere of 5% CO2 and 95% air.
After treatment of ligands as indicated time and dose, the cells were washed with cold PBS and lysed with lysis buffer (50 mM HEPES pH 7.5, 150 mM NaCl, 1%
Triton X-100, 1 mM EDTA, 10% glycerol) containing protease inhibitors (0.5 mM PMSF, 1 μg/ml leupeptin and 5 μg/ml aprotinin) and phosphatase inhibitors (30 mM NaF, 1 mM Na3VO4 and 30 mM Na4O7P2). The cell lysates were incubated for 1 hr at 4° C. After centrifugation (14,000×g for 15 min), equal amounts of soluble extract were incubated, for 4 hrs, with 5 μg of anti-IR antibody and 30 μl of resin volume of immobilized protein A. For gel electrophoresis, the precipitates were dissolved in Laemmli sample buffer. The sample was separated by SDS-PAGE and transferred to a nitrocellulose membrane (Schleicher and Schuell, BA85). Blocking was performed with TTBS buffer (10 mM Tris/HCl, pH 7.5, 150 mM NaCl, and 0.05% Tween 20) containing 5% skimmed milk powder. The membrane was probed with primary for 3 hrs at room temperature. Subsequently the immunoblot was washed and incubated with horseradish peroxidase-linked secondary antibody for 1 hr at room temperature, rinsed four times in TTBS buffer, and developed with horseradish peroxidase-dependent chemiluminescence reagents (Amersham International, United Kingdom).

In the next test the test system is C2C12 myotubules. Put plainly: Glucose uptake in C2C12 myotubules (UCN). As to conditions: in the presence of UCN. Type of test: cell-based. As for the experimental part:
(§2) UCN enhanced insulin-induced glucose uptake and phosphorylation of IR, IRS and Akt. Myotubules were incubated with 2 nM UCN and/or variant insulin dose (0-50 nm) for 1 min (Inserted immunoblot data). Phosphorylation of IRS and Akt was assessed by western blot analysis with anti-pIRS and anti-pAkt antibodies. Glucose uptake was determined as below.
(§3) C2C12 cells were maintained in DMEM, supplemented with 10% (v/v) FBS. The cells were grown at 37° C. in a humidified atmosphere of 5% CO2 and 95% air. For the differentiation of C2C12 cells, growing media was changed to DMEM, supplemented with 2% (v/v) ES and cultured for 7 days.
After differentiation, cells were washed and incubated during 3 hrs with 2 ml Krebs-Ringer phosphate (KRP) containing 130 mM NaCl, 5 mM KCl, 1.3 mM CaCl2.2H2O, 1.3 mM MgSO4.7H2O, and 10 mM Na2HPO4.7H2O, pH 7.4. To determine the effect of UCN on glucose uptake, 10 min incubation in 1 ml of KRP at indicated conditions was carried out. The reaction was performed by adding a mixture of [^14C] 2-DG (1 μCi/ml) and non-radioactive 2-DG (final concentration of 20 mM) for 10 min. […] Cell-associated radioactivity was determined by lysing the cells in 1 N NaOH and followed by scintillation counting. Non-specific uptake was measured by incubating the cells with cytochalasin B (20 μM/ml). […]

For test [2], the system named is insulin receptor (IR). Description: IR phosphorylation in mouse skeletal muscle. Format: in vivo. As to conditions: soleus muscle, 15 min after i.v. injection. As for the experimental part:
After fasting overnight, mice were injected iv with agonist. After 15 min, mice were killed by soleus muscles were rapidly excised and were immediately frozen in liquid nitrogen. Lysates were prepared by homogenizing the tissues in lysis buffer (50 mM HEPES pH 7.5, 150 mM NaCl, 1% Triton X-100, 1 mM EDTA, 10% glycerol) containing protease inhibitors (0.5 mM PMSF, 1 μg/ml leupeptin and 5 μg/ml aprotinin) and phosphatase inhibitors (30 mM NaF, 1 mM Na3VO4 and 30 mM Na4O7P2). Debris was removed by centrifugation at 14,000 rpm for 10 min at 4° C. Immunoprecipitation and Western blots were performed as previously described.

The next test relates to STZ-mouse. Put plainly: Blood glucose in STZ mice after intravenous UCN and/or insulin. Format: in vivo. How it is done:
as §1
For preparing STZ-mouse, male Institute of Cancer Research (ICR) mice weighing 20-25 g, aged 8 weeks, were obtained from the Hyochang Science. STZ-induced diabetic mice were prepared by administering an intraperineal injection of STZ (Sigma Chemical, St. Louis, Mo.) (75 mg/kg) to male ICR mice after the animals were fasted for 1 day. And the next day had one more injection of STZ. Mice with plasma glucose concentrations ≧280 mg/dl were considered to have type 1 diabetes. All tests were carried out 3 days after the injection of STZ.

For a further test, the system named is IR, IRS and Akt. Put plainly: Phosphorylation of IR, IRS and Akt in C2C12 myotubules. Format: cell-based. As for the experimental part: as §2, §3
Immunoprecipitation and immunoblot was performed according to the method of EXAMPLE 8.

On to insulin [reference compound], for which the GLUT4 translocation entry with GLUT4 was “stimulate GLUT4 translocation”. Also, the “phosphorylation of IRS1 and AKT” value in the test with IRS1 and AKT was “augmentation of IRS1 and AKT phosphorylation”.

On to “urocortin (DNPSLSIDLTFHLLRTLLELARTQSQRERAEQNRIIFDSV; ends and bridges not checked; UniProt P55089 83-122, looked up) [UCN, a 40 amino acid peptide as a member of the corticotrophin release factor (CRF) family]”, for which the “blood glucose level, UCN alone” value in the test on ICR mice (0.1 μM UCN) is “down-regulated the blood glucose level”; with ICR mice (from 100 pM up) it was “enhanced blood glucose level”. Moreover, the “insulin-mediated IR phosphorylation” value with insulin receptor (IR) [1] (1 μM CRF family peptide with 2 nM insulin, 1 min, hIRcB cells) is given as “potentate insulin-mediated IR phosphorylation”. Besides, in the test on insulin receptor (IR) [1] (UCN 2 nM to 1 μM with 2 nM insulin, 100 nM UCN with 10 nM insulin 0-60 min), the “dose and time dependence of insulin sensitizing effect” value is “increased in dose (12B,12C) and time (12D) dependent manner”. Moreover, in the test on insulin receptor (IR) [1] (hIRcB cells), the “potency in potentiating insulin-mediated IR phosphorylation compared with CRF” value was “more potent”. Also, in the test on insulin receptor (IR) [1] (without insulin, hIRcB cells), the “IR phosphorylation by peptide alone” value is “no effect on IR phosphorylation”. Also, the insulin-stimulated glucose uptake entry with C2C12 myotubules is “significantly increased”. Further, in the test on insulin receptor (IR) [2], the “insulin-induced IR phosphorylation in mouse skeletal muscle” value is reported as “significantly sensitized insulin-induced IR phosphorylation”. In the test on STZ-mouse (UCN (0.1 μM) i.v., 45 min), the “change of blood glucose level, UCN alone” value is “no effect on the change of blood glucose level”. For the same substance, the “blood glucose level, UCN co-injected with insulin” value in the test on STZ-mouse (UCN co-injected with inactive concentration of insulin (1 nM)) is listed as “significantly decreased”. The “insulin-induced phosphorylation of IR, IRS and Akt” value in the test with IR, IRS and Akt (2 nM UCN and/or insulin 0-50 nm, 1 min) was “enhanced”. The “insulin-induced phosphorylation of IR” value in the test on IR, IRS and Akt (in the presence of UCN, C2C12 myotubules) is “enhanced”.
